Source: ChEMBL document CHEMBL1133885, “A short synthesis of argatroban. a potent selective thrombin inhibitor” (Bioorg Med Chem Lett, 2001)
pIC50: −log10 of the molar value.

Test: Concentration required for 50% inhibition of thrombin induced platelet aggregation
Format: functional

- pIC50: 8.05
Compound: C[C@@H]1CCN(C(=O)[C@H](CCCNC(=N)N)NS(=O)(=O)c2cccc3c2NC[C@H](C)C3)[C@@H](C(=O)O)C1 [ARGATROBAN]
